Laboratory results taken from patent US12668607B2, “Heterocyclic amide compound, preparation method therefor and use thereof” (SHANGHAI JEYOU PHARMACEUTICAL CO., LTD., priority 2019, dated 2026).

Tests used:
human STING protein = target: T1, human STING protein (Homo sapiens, UniProt Q86WV6, H232R); experiment: STING in vitro binding assay (fluorescence polarization, FP affinity assay); settings: competition with 30 nM fluorescein-labeled c-di-GMP, 10 μM recombinant human wild-type STING C-terminal protein (aa 140-379), 30 min room temperature
T1 construct: from the 140th amino acid to the 379th amino acid; 6His-SUMO (N, cleaved yes); made in house
Protocol: Fluorescence polarization assay (FP assay) was used to detect the affinities of compounds to a human STING protein. The reaction system contained a certain amount of fluorescein labeled C-di-GMP and compounds to be detected with different concentrations, and when the C-terminal protein of the recombinant human STING was added, the two small molecules were competitively bound with the protein. The bound fluorescein-labeled c-di-GMP rotated slowly in the liquid phase, and at this point, the degree of fluorescence polarization detected was also high. The fluorescence polarization degree was in inverse relation with the concentrations and the affinities of the compounds to be detected. By detecting the magnitude of the polarized light in the reaction system, the affinities of the compounds to be detected to human STING could be accurately known.
The N-terminal of the recombinant STING protein was a 6His-SUMO sequence to facilitate correct protein folding and purification, and after protease cleavage, the C-terminal STING was used for FP assay.
In FP assay, a 384-well plate was used, with the fluorescein-labeled c-di-GMP with a final concentration of 30 nM, 10 μM human STING protein, and either reference compounds with different concentrations or the compounds to be detected added into 10 μL of the reaction system each well. The plate was centrifuged at 1000 g for 1 min, incubated at room temperature for 30 min in the dark and read with Envision.

colon cancer cells CT26 = experiment: Drug efficacy evaluation in CT26 syngeneic mouse model; type: in vivo, Balb/C mice; settings: CT26 subcutaneous tumors
Protocol: The compound efficacy evaluation was carried out by a CT26 syngeneic mouse model in this experiment. 3E5 colon cancer cells CT26 (ATCC-CRL-2638) were inoculated subcutaneously into 6-8 week-old Balb/C mice (Shanghai Lingchang Biotechnology Co., Ltd.), and the mice were randomly divided grouped, 6 mice per group when the tumor volume reached 100 mm^3. Intratumoral administration was performed on day 1 after grouping. Compound 1 was administered at a dose of 1 μg per mouse, 0.1 μg per mouse and 0.01 μg per mouse, respectively, for each group. Tumor volume measurements were taken three times a week after the start of administration. The calculation formula for tumor volume was: V=0.5a×b^2, with a and b representing the long and short diameters of the tumor, respectively. Each point is the mean and standard error of mean (SEM) of the tumor volume. Differences between control (saline) and administered groups were statistically analyzed using two-way ANOVA (statistical differences on day 15: Prism 8, ****p<0.0001).

THP1-Dual™ cells = experiment: THP-Dual in vitro binding assay (THP1-Dual reporter cells, Lucia luciferase/QUANTI-Luc); type: cell-based, human; settings: 30 min compound exposure, wash, 18 h incubation, IF-α/β activity by QUANTI-Luc
Description: The THP1-Dual™ cells used in the assay (InvivoGen, Catalog code: thpd-nfis) were constructed by stable integration of two inducible reporter genes in the human monocyte-like cell line THP1. The promoter sequence of the secretory embryo alkaline phosphatase (SEAP) reporter gene comprised an IFN-β basal promoter, 5 copies of NF-κB coexpression transcriptional response elements (NF-κB consensus transcriptional response elements) at the upstream and 3 copies of c-Rel binding sites. The secreted luciferase (Lucia) reporter gene was driven by 5 interferon-stimulated response elements (IFN-stimulated response elements) and a basal promoter of ISG54, thus making it possible to study two major downstream signaling pathways of STING simultaneously: the NF KB pathway was studied by assaying the SEAP activity; and the IRF pathway was studied by assessing the activity of Lucia luciferase.
To each well of a 96-well plate were added 20 μL of reference compounds or the compounds to be detected followed by the addition of 180 μL of THP1-Dual™ cell-containing FBS-free RPMI-1640 culture medium (about 90,000 cells/well). After incubating at 37° C. for 30 min under 5% CO2, the plate was centrifuged at 1000 rpm for 10 min, the supernatant was discarded, and the plate was washed twice with RPMI-1640 at 200 μL/well, and incubated for 18 h with RPMI-1640 at 200 µL/well. IF-α/β activity was quantified using QUANTI-Luc™ prepared and used according to the manufacturer's instructions.

T1 sequence (Q86WV6 140-379 H232R): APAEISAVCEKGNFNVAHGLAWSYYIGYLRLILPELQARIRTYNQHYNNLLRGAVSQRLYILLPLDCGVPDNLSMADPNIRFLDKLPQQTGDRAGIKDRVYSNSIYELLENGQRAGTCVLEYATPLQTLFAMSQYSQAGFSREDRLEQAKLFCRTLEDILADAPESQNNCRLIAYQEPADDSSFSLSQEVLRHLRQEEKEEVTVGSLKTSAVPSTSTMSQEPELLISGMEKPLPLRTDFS

| SMILES | IC50 (human STING protein) | EC50 (THP1-Dual™ cells; Homo sapiens) | EC50 (THP1-Dual™ cells) | tumor growth speed compared with the control group (colon cancer cells CT26; intratumoral administration day 1, 1, 0.1 and 0.01 μg per mouse, two-way ANOVA day 15 ****p<0.0001 vs saline) | inhibition of tumor growth in mice (dose relation) (colon cancer cells CT26; intratumoral, 1, 0.1 and 0.01 μg per mouse) |
| --- | --- | --- | --- | --- | --- |
| CCn1nc(C)c2c1C(=O)/N=C1\Nc3cc(C(N)=O)cc(OCCCO[C@H]4[C@@H](OC)O[C@H](CO)[C@@H](O)[C@@H]4O)c3N1C/C=C/CN1/C(=N\C(=O)c3cc(C)nn3CCCCC2)Nc2cc(C(N)=O)cc(OC)c21 [Compound 5] | 1500 nM | 60 nM | – | – | – |
| CCn1nc(C)cc1C(=O)/N=c1/[nH]c2cc(C(N)=O)cc(OC)c2n1C/C=C/Cn1/c(=N/C(=O)c2cc(C)nn2CC)[nH]c2cc(C(N)=O)cc(OCCN3CCCC4(CCNC4)C3)c21 (centres unmarked) [Compound 6] | 2200 nM | 2100 nM | – | – | – |
| Nc1ncnc2c1ncn2[C@@H]1O[C@@H]2COP(O)(=S)O[C@@H]3C(O)[C@@H](COP(O)(=S)O[C@H]2[C@H]1O)O[C@H]3n1cnc2c(N)ncnc21 (some centres unmarked) [ML RR-S2 CDA, reference compound] | – | – | 18200 nM | – | – |

More lines, main results first:

| IC50 (human STING protein) | EC50 (THP1-Dual™ cells; Homo sapiens) | EC50 (THP1-Dual™ cells) | SMILES | tumor growth speed compared with the control group (colon cancer cells CT26; intratumoral administration day 1, 1, 0.1 and 0.01 μg per mouse, two-way ANOVA day 15 ****p<0.0001 vs saline) | inhibition of tumor growth in mice (dose relation) (colon cancer cells CT26; intratumoral, 1, 0.1 and 0.01 μg per mouse) |
| --- | --- | --- | --- | --- | --- |
| 400 nM | 21 nM | – | CCn1nc(C)cc1C(=O)/N=c1/[nH]c2cc(C(N)=O)cc(OC)c2n1C/C=C/Cn1/c(=N/C(=O)c2cc(C)nn2CC)[nH]c2cc(C(N)=O)cc(OCCCO[C@H]3[C@@H](OC)O[C@H](CO)[C@@H](O)[C@@H]3O)c21 [Compound 1] | significantly slowed down | dose-dependent |
| 1700 nM | 8 nM | – | CCn1nc(C)cc1C(=O)/N=c1/[nH]c2cc(C(N)=O)cc(OC)c2n1C/C=C/Cn1/c(=N/C(=O)c2cc(C)nn2CC)[nH]c2cc(C(N)=O)cc(OCCCOC(=O)[C@@H](N)C(C)C)c21 [Compound 2] | – | – |
| 3700 nM | 40 nM | – | CCn1nc(C)cc1C(=O)/N=c1/[nH]c2cc(C(N)=O)cc(OC)c2n1C/C=C/Cn1/c(=N/C(=O)c2cc(C)nn2CC)[nH]c2cc(C(N)=O)cc(OCCCO[C@H]3[C@H](OC)O[C@H](CO)[C@H]3O)c21 [Compound 3] | – | – |
| 1600 nM | 520 nM | – | CCn1nc(C)cc1C(=O)/N=c1/[nH]c2cc(C(N)=O)cc(OCCCN3CCOCC3)c2n1C/C=C/Cn1/c(=N/C(=O)c2cc(C)nn2CC)[nH]c2cc(C(N)=O)cc(OCCCO[C@H]3[C@@H](OC)O[C@H](CO)[C@@H](O)[C@@H]3O)c21 [Compound 4] | – | – |
| 3800 nM | 80 nM | – | CCn1nc(C)cc1C(=O)/N=c1/[nH]c2cc(C(N)=O)cc(OC)c2n1C/C=C/Cn1/c(=N/C(=O)c2cc(C)nn2CC)[nH]c2cc(C(N)=O)cc(OCCCN3CC4(COC4)C3)c21 [Compound 7] | – | – |
